One may read the IC50 as the midpoint of a concentration-inhibition curve.

This is an account of results in US11059832B2, “HPK1 inhibitors and methods of using same” (University Health Network, priority 2015, dated 2021).

Assay type in all cases: biochemical
The target of assay [1] is T1, human HPK1 (MAP4K1) (Homo sapiens, UniProt Q92918).
T1 construct: human HPK1 (aa 1-346); purchased Invitrogen PV6355
T1 sequence (Q92918 1-346): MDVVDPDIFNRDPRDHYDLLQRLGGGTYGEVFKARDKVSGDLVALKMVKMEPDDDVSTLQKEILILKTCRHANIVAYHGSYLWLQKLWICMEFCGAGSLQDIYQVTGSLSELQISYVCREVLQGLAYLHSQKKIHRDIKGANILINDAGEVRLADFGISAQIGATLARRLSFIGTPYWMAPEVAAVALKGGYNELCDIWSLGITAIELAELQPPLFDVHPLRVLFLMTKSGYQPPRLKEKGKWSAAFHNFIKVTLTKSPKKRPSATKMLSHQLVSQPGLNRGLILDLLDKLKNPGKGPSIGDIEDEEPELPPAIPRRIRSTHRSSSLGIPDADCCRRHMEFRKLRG
Nature of the assay: HPK1 inhibition assay (indirect ELISA). The note with it: GST-HPK1 0.6 nM, 12 μM ATP; read-out: IC50 Range HPK1. The protocol:
Active HPK1 (MAP4K1) was purchased as an N-terminal GST fusion of human HPK1 (aa 1-346) from Invitrogen (cat #PV6355). HPK1 activity was measured using an indirect ELISA detection system. GST-HPK1 (0.6 nM) was incubated in the presence of 12 μM ATP (Sigma cat #A7699), 5 mM MOPS (pH 7.2), 2.5 mM β-glycerol-phosphate, 5 mM MgCl2, 0.4 mM EDTA, 1 mM EGTA, 0.05 mM DTT, in a 96 well microtitre plate pre-coated with 0.5 μg/well bovine myelin basic protein (MBP) (Millipore, cat #13-110). The reaction was allowed to proceed for 30 min, followed by 5 washes of the plate with Wash Buffer (phosphate buffered saline supplemented with 0.2% Tween 20), and incubation for 30 min with a 1:3000 dilution of anti-phospho-threonine rabbit polyclonal antibody (Cell Signaling cat #9381). The plate was washed 5 times with wash buffer, incubated for 30 min in the presence of goat anti-rabbit horse radish peroxidase conjugate (BioRad cat #1721019, 1:3000 concentration), washed an additional 5 times with wash buffer, and incubated in the presence of TMB substrate (Sigma cat #T0440). The colorimetric reaction was allowed to continue for 5 min, followed by addition of stop solution (0.5 N H2SO4), and quantified by detection at 450 nm with a monochromatic plate reader (Molecular Devices M5).
Compound inhibition was determined at either a fixed concentration (10 μM) or at a variable inhibitor concentration (typically 50 μM to 0.1 μM in a 10 point dose response titration). Compounds were pre-incubated in the presence of enzyme for 15 min prior to addition of ATP and the activity remaining quantified using the above described activity assay. The % inhibition of a compound was determined using the following formula; % inhibition=100×(1−(experimental value−background value)/(high activity control−background value)). The IC50 value was determined using a non-linear 4 point logistic curve fit (XLfit4, IDBS) with the formula; (A+(B/(1+((x/C)^D)))), where A=background value, B=range, C=inflection point, D=curve fit parameter.
For orientation: An ELISA detects its analyte on a solid surface through an enzyme-linked reagent.

Assay [2] addresses T2, LCK (Homo sapiens, UniProt P06239).
T2 construct: purchased Invitrogen P3043
Nature of the assay: LCK inhibition, FRET based Z'-LYTE Kinase Assay. As to conditions: 25 nM LCK, 180 μM ATP; read-out: IC50 Range Lck. As for the experimental part: (§1) FLT3 and LCK compound inhibition were determined using FRET based Z′-LYTE Kinase Assay Kit with Tyrosine 2 peptide as the substrate (Invitrogen cat #PV3191). […] The % inhibition values were determined according to the manufacturer's directions and IC50 values were obtained using a non-linear 4 point logistic curve fit (XLfit4, IDBS).

The target of assay [3] is T3, FLT3 (Homo sapiens, UniProt P36888).
T3 construct: purchased Invitrogen PV3182
T3 sequence (P36888 27-993): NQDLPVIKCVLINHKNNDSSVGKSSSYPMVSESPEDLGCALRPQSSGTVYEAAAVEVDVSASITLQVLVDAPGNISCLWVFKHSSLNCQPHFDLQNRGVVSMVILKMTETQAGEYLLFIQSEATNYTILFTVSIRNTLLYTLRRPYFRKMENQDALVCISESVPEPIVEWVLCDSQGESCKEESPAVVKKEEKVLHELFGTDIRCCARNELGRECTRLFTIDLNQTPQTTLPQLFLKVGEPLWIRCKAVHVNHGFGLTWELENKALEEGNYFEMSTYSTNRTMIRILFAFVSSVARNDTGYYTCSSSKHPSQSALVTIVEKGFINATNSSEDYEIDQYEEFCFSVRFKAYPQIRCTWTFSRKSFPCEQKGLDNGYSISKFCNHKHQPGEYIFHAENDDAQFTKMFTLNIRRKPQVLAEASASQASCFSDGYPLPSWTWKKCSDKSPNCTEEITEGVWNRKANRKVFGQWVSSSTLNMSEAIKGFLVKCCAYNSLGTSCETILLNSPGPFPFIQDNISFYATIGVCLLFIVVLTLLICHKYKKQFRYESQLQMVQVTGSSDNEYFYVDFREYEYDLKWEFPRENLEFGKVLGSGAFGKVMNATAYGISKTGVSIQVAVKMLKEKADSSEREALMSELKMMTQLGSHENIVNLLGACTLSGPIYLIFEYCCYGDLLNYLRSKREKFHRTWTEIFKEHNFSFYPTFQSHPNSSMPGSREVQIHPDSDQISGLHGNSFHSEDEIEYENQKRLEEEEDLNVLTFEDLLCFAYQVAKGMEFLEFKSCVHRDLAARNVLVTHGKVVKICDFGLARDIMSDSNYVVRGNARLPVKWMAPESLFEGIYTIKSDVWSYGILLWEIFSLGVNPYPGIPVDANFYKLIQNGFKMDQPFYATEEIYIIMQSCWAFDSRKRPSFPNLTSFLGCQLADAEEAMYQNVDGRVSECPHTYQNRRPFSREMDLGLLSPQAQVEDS
The experiment in a line: FLT3 inhibition, FRET based Z'-LYTE Kinase Assay. As to conditions: 1 nM FLT3, 940 μM ATP; read-out: IC50 Range Flt3. The protocol:
as §1

Where only a bound is given, the exact number is not on record here.

T2 sequence (P06239 whole entry, species assumed): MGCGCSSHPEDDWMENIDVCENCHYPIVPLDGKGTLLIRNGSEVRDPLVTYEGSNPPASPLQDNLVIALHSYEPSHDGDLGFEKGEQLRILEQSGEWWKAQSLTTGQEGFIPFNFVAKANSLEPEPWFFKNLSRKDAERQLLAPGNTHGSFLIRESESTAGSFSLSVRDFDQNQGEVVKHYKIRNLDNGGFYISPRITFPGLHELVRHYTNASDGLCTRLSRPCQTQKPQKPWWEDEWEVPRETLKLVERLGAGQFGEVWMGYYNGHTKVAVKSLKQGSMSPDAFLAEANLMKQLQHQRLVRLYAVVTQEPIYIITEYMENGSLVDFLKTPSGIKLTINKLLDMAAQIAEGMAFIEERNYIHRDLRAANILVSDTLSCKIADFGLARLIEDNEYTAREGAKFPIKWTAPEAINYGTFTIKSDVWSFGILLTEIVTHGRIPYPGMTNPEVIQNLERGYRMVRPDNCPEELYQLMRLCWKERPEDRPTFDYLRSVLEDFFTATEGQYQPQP

`CN1CCN(c2ccc3nc(-c4c(N[C@H]5C[C@H](O)C5)c5ccsc5[nH]c4=O)[nH]c3c2)CC1` [Example A8, 4-(((1r,3r)-3-hydroxycyclobutyl)amino)-5-(6-(4-methylpiperazin-1-yl)-1H-benzo[d]imidazol-2-yl)thieno[2,3-b]pyridin-6(7H)-one]: the IC50 in assay [1] was no more than 50 nM; in assay [2], 50 to 500 nM; in assay [3], no more than 50 nM.
With `CN1CCN(c2ccc3nc(-c4c(N[C@@H]5CCNC[C@H]5F)c5ccsc5[nH]c4=O)[nH]c3c2)CC1` [Example A14, 4-(((3R,4R)-3-fluoropiperidin-4-yl)amino)-5-(6-(4-methylpiperazin-1-yl)-1H-benzo[d]imidazol-2-yl)thieno[2,3-b]pyridin-6(7H)-one], the half-inhibitory concentration (IC50) in assay [1], in assay [2] and in assay [3] was no more than 50 nM each time.
For the compound `CN1CCN(c2ccc3nc(-c4c(NC5CCNCC5(F)F)c5ccsc5[nH]c4=O)[nH]c3c2)CC1` (stereo not drawn) [Example A15, 4-((3,3-difluoropiperidin-4-yl)amino)-5-(6-(4-methylpiperazin-1-yl)-1H-benzo[d]imidazol-2-yl)thieno[2,3-b]pyridin-6(7H)-one], the 50% inhibitory concentration (IC50) in assay [1], in assay [2] and in assay [3] was no more than 50 nM in each case.
On to `CN1CCN(c2ccc3nc(-c4c(NC5CCN(C=O)CC5)c5ccsc5[nH]c4=O)[nH]c3c2)CC1` [Example A17, 4-((5-(6-(4-methylpiperazin-1-yl)-1H-benzo[d]imidazol-2-yl)-6-oxo-6,7-dihydrothieno[2,3-b]pyridin-4-yl)amino)piperidine-1-carbaldehyde], for which the IC50 in assay [1], in assay [2] and in assay [3] was no more than 50 nM each time.
In the case of `CN1CCN(c2ccc3nc(-c4c(NCc5ccncc5)c5sccc5[nH]c4=O)[nH]c3c2)CC1` [Example A22, 6-(6-(4-methylpiperazin-1-yl)-1H-benzo[d]imidazol-2-yl)-7-((pyridin-4-ylmethyl)amino)thieno[3,2-b]pyridin-5(4H)-one], the results for the half-maximal inhibitory concentration (IC50) in assay [1], in assay [2] and in assay [3] were no more than 50 nM, 50 to 500 nM and no more than 50 nM, respectively.
`CN1CCN(c2ccc3nc(-c4c(NC5CCCC5)c5cscc5[nH]c4=O)[nH]c3c2)CC1` [Example A24, 4-(cyclopentylamino)-3-(6-(4-methylpiperazin-1-yl)-1H-benzo[d]imidazol-2-yl)thieno[3,4-b]pyridin-2(1H)-one]: the IC50 in assay [1], in assay [2] and in assay [3] was no more than 50 nM in each case.
For the compound `CN1CCN(c2ccc3nc(-c4c(NC5CCC5)c5cscc5[nH]c4=O)[nH]c3c2)CC1` [Example A27, 4-(cyclobutylamino)-3-(6-(4-methylpiperazin-1-yl)-1H-benzo[d]imidazol-2-yl)thieno[3,4-b]pyridin-2(1H)-one], the IC50 in assay [1], in assay [2] and in assay [3] was no more than 50 nM in each case.
Take `Nc1c(-c2nc3ccc(N4CCOCC4)cc3[nH]2)c(=O)[nH]c2ccsc12` [Example A31, 7-amino-6-(6-morpholino-1H-benzo[d]imidazol-2-yl)thieno[3,2-b]pyridin-5(4H)-one]: the IC50 was no more than 50 nM in assay [1], 50 to 500 nM in assay [2] and no more than 50 nM in assay [3].
For the compound `C[C@@H]1CN(c2ccc3nc(-c4c(N)c5sccc5[nH]c4=O)[nH]c3c2)C[C@H](C)N1C` [Example A33, 7-amino-6-(6-(3r,5s)-rel-3,4,5-trimethylpiperazin-1-yl)-1H-benzo[d]imidazol-2-yl)thieno[3,2-b]pyridin-5(4H)-one], the half-inhibitory concentration (IC50) in assay [1] was no more than 50 nM; in assay [2], 50 to 500 nM; in assay [3] it was no more than 50 nM.
Regarding `CN1CCN(c2ccc3nc(-c4c(NC5CCOCC5)c5sccc5[nH]c4=O)[nH]c3c2)CC1` [Example A35, 6-(6-(4-methylpiperazin-1-yl)-1H-benzo[d]imidazol-2-yl)-7-((tetrahydro-2H-pyran-4-yl)amino)thieno[3,2-b]pyridin-5(4H)-one], the IC50 in assay [1], in assay [2] and in assay [3] was no more than 50 nM in each case.
